Marks after values point to notes of the source that are not given here.
Columns and labels:
[1] = Superoxide radical scavenging activity (non-enzymatic, PMS/NADH, NBT method); settings: 100 μM
Text: Superoxide anion radical is an active form of oxygen, and it is the product of the one-electron reduction of […] oxygen. Herein, superoxide radicals were formed by mixing phenazine methosulfate (PMS) with NADH and air-oxygen. The production of radicals was estimated with the nitroblue-tetrazolium method (NBT). From the tested pyrroles, Compounds 2i and 2iii were equipotent (57%) scavengers. […] In contrast, the dipole moment appeared to be important. The values of the dipole, as calculated by the program Spartan v.5.1.3.
The superoxide anion radicals were produced non-enzymatically by mixing phenazine methosulfate (PMS) with NADH and air-oxygen. The production of superoxide radicals was estimated with the nitroblue-tetrazolium (NBT) method with 3 μΜ PMS, 78 μΜ NADH and 25 μΜ NBT in 19 μΜ phosphate buffer pH 7.4. The absorbance was measured at 560 nm at room temperature. The tested compounds were added in the mixture 2 min before the addition of NADH [52].

[2] = Inhibition of heme-dependent lipid peroxidation of linoleic acid (TBA method); settings: pH 7.4, 37 °C
Experimental: The anti-lipid peroxidation activity was determined through the inhibition of heme-dependent lipid peroxidation. The peroxidation of sodium linoleate is induced from a mixture of heme and hydrogen peroxide, which produces free radicals from the side chains of amino acids. The assay is performed at pH 7.4 with a phosphate buffer, and the products of peroxidation are identified with the thiobarbituric acid method (TBA). In particular, malonic dialdehyde, a final product of lipid peroxidation, reacts with TBA and forms a colored product, whose absorbance is measured at 535 nm. […] Compounds 2ii and 2vi with low Clog P values are weak inhibitors of lipid peroxidation. It seems that the increase of volume of Ar^1, measured as molar refractivity MR (Ar^1), enhances IC50 values and reduces the inhibitory activity (2i and 2iii; and 2ii, 2iv and 2vi). For derivatives 2iv and 2v, the presence of an electron-acceptor, e.g., a chloro-substituent on the phenyl ring (Ar^2), diminishes the anti-lipid peroxidation activity.
Firstly, 0.4 mL of heme (50 μΜ), 0.25 mL of sodium linoleate (400 μΜ), 0.1 mL of the solutions of the tested compounds (concentrations varying from 10–100 μΜ in DMSO) and 0.25 mL of H2O2 (500 μΜ) were incubated for 10 min in 37 °C in a phosphate buffer (KH2PO4–KOH 50 mM, pH 7.4). The peroxidation products were identified with the reaction of thiobarbituric acid, by adding successively 0.5 mL of 40% trichloroacetic acid (TCA) and 0.5 mL of 2% of thiobarbituric acid (TBA). The addition was followed by stirring and heating at 90 °C for 20 min, and then, 1 mL of acetic acid and 1 mL of chloroform were added and the absorbance measured at 535 nm. IC50 values were determined.

[3] = Interaction with the stable free radical DPPH (reducing activity); settings: for RA % (interaction with DPPH): DPPH 50 μM; for interaction with DPPH: 10 μM compound
Experimental: 2,2-Diphenyl-1-picrylhydrazyl (DPPH) is a lipophilic, free, stable radical, which absorbs at 517 nm (violet color). Upon reduction, decolorization is observed that is stoichiometric to the number of received electrons and is representative of the antioxidant ability of compounds. […] This interaction, which indicates their radical scavenging ability in an iron-free system, was measured at 100 and 1000 μM after 20 and 60 min, whereas the final concentration of DPPH was stable at 50 μΜ.
[…] The absorbance was measured at 517 nm after 20 and 60 min at room temperature.

[4] = tested on: carrageenan-induced rat paw edema; test: Inhibition of rat paw edema induced by carrageenan; assay type: in vivo, Fischer 344 rats; settings: 0.01 mmol/kg body weight, intraperitoneally, 3.5 h; for inhibition in vivo at 10 µmol/kg: Rattus norvegicus, ip, read-out: CPE % inhibition of rat paw edema induced by carrageenan
Experimental: The pyrrolyl derivatives, as well as their precursor chalcones were tested in vivo for the inhibition of rat paw edema induced by carrageenan. […] […]. For Compounds 2i, 2iii, 2iv and 2v, we determined their ED50 values. […]. The finding supports the primary idea of this design.
Edema was induced in the right hind paw of Fischer 344 rats (150–200 g). In the study, both males and females were included, with the exemption of pregnant females. The animals, which have been bred in our laboratory, were housed under standard conditions and received a diet of commercial food pellets and water ad libitum during maintenance. One hour before the onset of the experiment, food and water were removed. The tested compounds (dose 0.01 mmol/kg body weight) were diluted in water with a few drops of Tween 80, and they were administered intraperitoneally simultaneously with the intradermal injection of 0.1 mL 2% of carrageenan in water. The animals were euthanatized 3.5 h after the carrageenan administration. The difference between the weight of injected and uninjected paws was calculated for each animal and was compared to control animals, which were treated with water. Indomethacin was used as a reference compound in 0.01 mmol/kg. The results were expressed as the percent inhibition of the edema (CPE %).

[5] = Lipophilicity as RM values by reverse-phase thin layer chromatography (RPTLC); assay type: physicochemical; settings: methanol/water 75/25 v/v with ammonia drops
Text: Since lipophilicity is a significant physicochemical property determining the absorption, distribution, metabolism and excretion properties (ADME) of drugs, we attempted to determine experimentally the lipophilicity as RM values with reverse-phase thin layer chromatography (RPTLC). Lipophilicity was also theoretically calculated as Clog P values. According to the calculated Clog P values, the most lipophilic compounds were 2iii (6.37) and 2v (6.04). However, this observation was not supported by the RM values, since Compound 2iii presented very low lipophilicity (−0.061). Furthermore, the lipophilicity of Compound 2v could not be determined experimentally under the reported conditions. Attempts to correlate Clog P and RM values failed. From our results (Table 2), it can be concluded that RM values could not be used as a successful relative measure of the overall lipophilic/hydrophilic properties of these molecules. Tentatively, this can be attributed to the different nature of the hydrophilic and lipophilic phases in the two systems. Clog P refers to n-octanol/water, whereas RM in this case refers to methanol/water. Moreover, it is likely that pyrrole derivatives form hydrogen bonds within the hydrophilic phase.
Reverse-phase thin layer chromatography (RPTLC) was used for the determination of RM values. Silica gel plates were saturated with 5% v/v liquid paraffin in petroleum ether, and the mobile phase was methanol/water (75/25 v/v) with the addition of ammonia drops. Spots were detected under UV light. RM values were determined by the corresponding Rf values (from five measurements for each compound) using the equation [43]: RM = log[(1/Rf) − 1](1)

[6] = molecular target: T1, COX-2 (Homo sapiens, UniProt P35354); test: Inhibition of cycloxygenase-2 (colorimetric TMPD assay)
T1 sequence (P35354 18-604): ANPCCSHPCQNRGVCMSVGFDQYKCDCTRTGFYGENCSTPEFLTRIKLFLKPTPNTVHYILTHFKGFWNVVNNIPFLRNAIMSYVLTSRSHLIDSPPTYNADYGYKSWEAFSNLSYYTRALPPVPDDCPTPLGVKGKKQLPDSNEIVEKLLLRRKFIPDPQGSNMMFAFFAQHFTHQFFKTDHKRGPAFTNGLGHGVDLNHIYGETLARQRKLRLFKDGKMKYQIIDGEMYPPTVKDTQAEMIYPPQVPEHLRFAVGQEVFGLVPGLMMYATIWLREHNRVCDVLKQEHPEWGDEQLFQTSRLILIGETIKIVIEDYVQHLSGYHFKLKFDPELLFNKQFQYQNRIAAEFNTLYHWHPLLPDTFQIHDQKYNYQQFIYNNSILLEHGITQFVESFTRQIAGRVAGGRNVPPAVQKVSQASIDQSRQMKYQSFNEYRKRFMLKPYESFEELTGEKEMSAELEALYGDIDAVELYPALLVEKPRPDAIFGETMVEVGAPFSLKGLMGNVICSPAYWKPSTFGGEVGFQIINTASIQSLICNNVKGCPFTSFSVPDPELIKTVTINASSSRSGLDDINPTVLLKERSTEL
Experimental: The inhibition of COX-2, as a peroxidase, was determined by a colorimetric assay with the oxidation of N,N,N′,N′-tetramethyl-p-phenylenediamine (TMPD).
COX-2 inhibitory activity was determined by using arachidonic acid (AA) as a substrate in buffer (0.1 M Tris pH 8.5) and TMPD as a co-substrate.

[7] = molecular target: T2, interleukin-6 (IL-6) (Mus musculus, UniProt P08505); test: Inhibition of interleukin-6 (immunometric double antibody sandwich EIA); assay type: biochemical; settings: compound 10 μM; IL-6 1500 pg/mL
T2 construct: purchased Cayman Item No. 583371
T2 sequence (P08505 25-211): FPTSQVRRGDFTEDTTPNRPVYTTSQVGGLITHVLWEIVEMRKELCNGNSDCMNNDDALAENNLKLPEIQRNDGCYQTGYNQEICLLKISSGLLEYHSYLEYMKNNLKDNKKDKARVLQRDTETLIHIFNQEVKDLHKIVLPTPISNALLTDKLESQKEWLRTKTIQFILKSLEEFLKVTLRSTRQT
Experimental: The assay used for the inhibition of IL-6 is based on an immunometric double antibody method (sandwich technique). […] Both compounds gave satisfactory biological responses, both in high and in low concentrations of IL-6 (Table 8).
The method was based on an immunometric double antibody sandwich technique. Each well of the microwell plate was coated with a specific for mouse IL-6 rat monoclonal antibody. Tested compounds at 10 μΜ and standards were incubated in the wells, and after rinsing, a second monoclonal antibody was added, which was conjugated with biotin and detected the captured IL-6. The recognition of double antibody sandwiches was done with HRP-conjugated streptavidin. The concentration of IL-6 was determined by measuring the enzymatic activity of HRP using the chromogenic substrate TMB (3,3′,5,5′-tetramethylbenzidine). The absorbance of the reaction product was measured at 450 nm, and the intensity of the color was directly proportional to the amount of bound HRP-streptavidin conjugate, which was proportional to the concentration of IL-6.

O=C(O)/C=C/c1ccc(O)c(O)c1 [Caffeic acid, reference compound]
O2^•− % superoxide radical scavenging activity [1]: 86.1%
IC50 ([2]; read-out: LP IC50 (inhibition of heme-dependent lipid peroxidation of linoleic acid)): 6 µM

O=C(C=Cc1cccc(Oc2ccccc2)c1)c1cccs1 [Compound 1i, 3-(3-Phenoxyphenyl)-1-(thien-2-yl)prop-2-en-1-one]
RA % (interaction with DPPH) ([3]; 100 μM compound, 20 min): 43%
RA % (interaction with DPPH) ([3]; 100 μM compound, 60 min): 2%
RA % (interaction with DPPH) ([3]; 1000 μM compound, 20 min): 5%
inhibition in vivo at 10 µmol/kg [4]: 41%
melting point: 48 to 50 °C

CN(C)c1ccc(C=CC=CC(=O)c2ccccc2)cc1 [Compound 1ii, 5-[4-(Dimethylamino)phenyl]-1-phenylpenta-2,4-dien-1-one]
RA % (interaction with DPPH) ([3]; 100 μM compound, 20 min): 31%
RA % (interaction with DPPH) ([3]; 100 μM compound, 60 min): 13%
RA % (interaction with DPPH) ([3]; 1000 μM compound, 20 min): 38%
RA % (interaction with DPPH) ([3]; 1000 μM compound, 60 min): 42%
inhibition in vivo at 10 µmol/kg [4]: 69%

O=C(C=Cc1ccc(OCc2ccc(Br)cc2)cc1)c1cccs1 [Compound 1iii, 3-{4-[(4-Bromobenzyl)oxy]phenyl}-1-(thien-2-yl)prop-2-en-1-one]
inhibition in vivo at 10 µmol/kg [4]: 86%
melting point: 141 to 143 °C

O=C(C=Cc1cccc2ccccc12)c1ccccc1 [Compound 1iv, 3-(Naphth-1-yl)-1-phenylprop-2-en-1-one]
inhibition in vivo at 10 µmol/kg [4]: 40%

O=C(C=Cc1cccc2ccccc12)c1ccc(Cl)cc1 [Compound 1v, 3-(Naphth-1-yl)-1-(4-chloro)phenylprop-2-en-1-one]
CPE % inhibition of rat paw edema induced by carrageenan [4]: 44 ^d %

O=C(C=Cc1ccc2[nH]ccc2c1)c1ccccc1 [Compound 1vi, 3-(1H-Indol-5-yl)-1-phenylprop-2-en-1-one]
inhibition in vivo at 10 µmol/kg [4]: 42%

CN(C)c1ccc(/C=C/c2c[nH]cc2C(=O)c2ccccc2)cc1 [Compound 2ii, (E)-{4-[4-(Dimethylamino)styryl]-1H-pyrrol-3-yl}(phenyl)methanone]
RM [5]: 0.073
interaction with DPPH ([3]; 20 min): 35%
interaction with DPPH ([3]; 60 min): 40%
RA % (interaction with DPPH) ([3]; 100 μM compound, 20 min): 86%
RA % (interaction with DPPH) ([3]; 100 μM compound, 60 min): 88%
RA % (interaction with DPPH) ([3]; 1000 μM compound, 20 min): 99%
RA % (interaction with DPPH) ([3]; 1000 μM compound, 60 min): 96%
LP IC50 (inhibition of heme-dependent lipid peroxidation of linoleic acid) [2]: inactive
inhibition in vivo at 10 µmol/kg [4]: 89%
melting point: 219 to 220 °C
inhibition at 100 µM ([6]; read-out: COX-2 % inhibition): 47%

O=C(c1ccccc1)c1c[nH]cc1-c1ccc2[nH]ccc2c1 [Compound 2vi, [4-(1H-Indol-5-yl)-1H-pyrrol-3-yl](phenyl)methanone]
RM [5]: −0.685
O2^•− % superoxide radical scavenging activity [1]: 86%
LP IC50 (inhibition of heme-dependent lipid peroxidation of linoleic acid) [2]: inactive
melting point: 247 to 248 °C
COX-2 % inhibition ([6]; 100 μM): inactive

COc1ccc2c(c1)c(CC(=O)O)c(C)n2C(=O)c1ccc(Cl)cc1 [Indomethacin, reference compound]
inhibition at 10 µM [7]: 100%
inhibition in vivo at 10 µmol/kg [4]: 53%

CC(Cc1ccc(O)c(O)c1)C(C)Cc1ccc(O)c(O)c1 (stereo not drawn) [NDGA, nordihydroguaiaretic acid, reference compound]
RA % (interaction with DPPH) ([3]; 100 μM compound, 20 min): 81%
RA % (interaction with DPPH) ([3]; 100 μM compound, 60 min): 83%
RA % (interaction with DPPH) ([3]; 1000 μM compound, 20 min): 96%
RA % (interaction with DPPH) ([3]; 1000 μM compound, 60 min): 96%

Source: publication PMC6332026, “Synthesis and Pharmacochemistry of New Pleiotropic Pyrrolyl Derivatives” (Molecules, 2015)
